Results on five molecules are retold here after ChEMBL document CHEMBL5465560, “Selectivity Literature for EUbOPEN Chemogenomic Library” (2024).

The target in assay [1] is Epithelial discoidin domain-containing receptor 1 (Homo sapiens) (UniProt Q08345). The note with it: at 10 µM.
The target of assay [2] is Ribosomal protein S6 kinase alpha-6 (Homo sapiens, UniProt Q9UK32). In words: Selectivity interaction (KinomeScan (DiscoverX)) EUB0000595a RPS6KA6. The note with it: at 10 µM.
For assay [3], the target named is T1, Mitogen-activated protein kinase kinase kinase 13 (Homo sapiens) (UniProt O43283).
T1 sequence (whole entry): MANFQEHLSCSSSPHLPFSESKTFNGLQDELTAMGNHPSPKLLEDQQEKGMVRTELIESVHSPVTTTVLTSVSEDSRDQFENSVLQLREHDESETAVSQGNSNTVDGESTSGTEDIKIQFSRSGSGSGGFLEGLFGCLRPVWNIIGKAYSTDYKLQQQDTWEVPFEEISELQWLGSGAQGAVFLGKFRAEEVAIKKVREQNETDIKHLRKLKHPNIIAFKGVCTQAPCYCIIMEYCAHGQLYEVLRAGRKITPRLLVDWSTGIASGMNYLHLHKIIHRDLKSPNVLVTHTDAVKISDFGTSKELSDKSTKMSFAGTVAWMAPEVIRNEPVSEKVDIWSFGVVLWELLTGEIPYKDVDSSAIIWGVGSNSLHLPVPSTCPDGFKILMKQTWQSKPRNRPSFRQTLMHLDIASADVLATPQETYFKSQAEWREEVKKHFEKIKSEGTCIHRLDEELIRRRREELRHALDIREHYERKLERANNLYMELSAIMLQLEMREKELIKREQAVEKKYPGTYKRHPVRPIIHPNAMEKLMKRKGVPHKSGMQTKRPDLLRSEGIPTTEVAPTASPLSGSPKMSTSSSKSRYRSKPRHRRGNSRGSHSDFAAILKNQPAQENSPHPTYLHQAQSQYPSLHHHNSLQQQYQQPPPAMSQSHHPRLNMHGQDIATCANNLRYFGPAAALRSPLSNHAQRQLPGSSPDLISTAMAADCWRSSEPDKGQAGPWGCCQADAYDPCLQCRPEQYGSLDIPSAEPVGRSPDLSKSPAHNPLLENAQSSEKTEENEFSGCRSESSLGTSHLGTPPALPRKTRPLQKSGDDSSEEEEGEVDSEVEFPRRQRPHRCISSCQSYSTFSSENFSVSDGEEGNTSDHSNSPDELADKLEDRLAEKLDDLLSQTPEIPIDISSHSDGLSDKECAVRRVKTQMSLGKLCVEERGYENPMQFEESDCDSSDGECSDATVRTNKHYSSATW
In words: Selectivity interaction (KinomeScan (DiscoverX)) EUB0000666a MAP3K13. The following applies: at 10 µM.

The target of assay [4] is T2, Phosphatidylinositol 4,5-bisphosphate 3-kinase catalytic subunit delta isoform (Homo sapiens) (UniProt O00329).
T2 sequence (whole entry): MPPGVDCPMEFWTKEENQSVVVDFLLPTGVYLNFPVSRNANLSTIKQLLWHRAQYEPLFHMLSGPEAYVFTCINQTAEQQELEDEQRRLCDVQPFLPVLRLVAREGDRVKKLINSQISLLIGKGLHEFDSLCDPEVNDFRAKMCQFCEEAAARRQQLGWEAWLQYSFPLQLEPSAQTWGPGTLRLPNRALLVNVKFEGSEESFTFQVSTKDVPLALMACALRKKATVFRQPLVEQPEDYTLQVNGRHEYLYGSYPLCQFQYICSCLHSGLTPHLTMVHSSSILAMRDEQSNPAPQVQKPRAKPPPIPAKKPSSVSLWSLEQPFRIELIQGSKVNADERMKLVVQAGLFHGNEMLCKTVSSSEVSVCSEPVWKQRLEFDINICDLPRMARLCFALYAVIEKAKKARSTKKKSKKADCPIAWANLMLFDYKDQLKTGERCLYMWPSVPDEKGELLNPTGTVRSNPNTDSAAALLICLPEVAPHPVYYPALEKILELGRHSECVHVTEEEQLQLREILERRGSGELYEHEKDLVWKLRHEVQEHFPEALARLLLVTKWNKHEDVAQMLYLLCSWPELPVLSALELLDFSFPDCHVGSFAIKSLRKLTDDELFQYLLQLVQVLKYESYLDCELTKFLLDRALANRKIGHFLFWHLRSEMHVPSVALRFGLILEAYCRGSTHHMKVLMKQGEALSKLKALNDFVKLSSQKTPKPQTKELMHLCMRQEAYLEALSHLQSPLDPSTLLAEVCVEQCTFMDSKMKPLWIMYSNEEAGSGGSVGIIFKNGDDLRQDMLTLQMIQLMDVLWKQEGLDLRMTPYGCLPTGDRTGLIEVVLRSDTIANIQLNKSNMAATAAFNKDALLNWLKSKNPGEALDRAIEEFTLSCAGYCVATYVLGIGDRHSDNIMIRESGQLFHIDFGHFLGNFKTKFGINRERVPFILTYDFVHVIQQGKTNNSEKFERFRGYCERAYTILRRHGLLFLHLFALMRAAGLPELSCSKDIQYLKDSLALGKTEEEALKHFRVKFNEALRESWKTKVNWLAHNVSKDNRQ
As to the kind of experiment: Selectivity interaction (ActivX KiNativ screen (kinase selectivity in THP-1 cell lysates)) EUB0000639a PIK3CD. In kind it is subcellular. The note with it: lysate.

The target in assay [5] is T3, Serine/threonine-protein kinase Sgk1 (Homo sapiens) (UniProt O00141).
T3 sequence (whole entry): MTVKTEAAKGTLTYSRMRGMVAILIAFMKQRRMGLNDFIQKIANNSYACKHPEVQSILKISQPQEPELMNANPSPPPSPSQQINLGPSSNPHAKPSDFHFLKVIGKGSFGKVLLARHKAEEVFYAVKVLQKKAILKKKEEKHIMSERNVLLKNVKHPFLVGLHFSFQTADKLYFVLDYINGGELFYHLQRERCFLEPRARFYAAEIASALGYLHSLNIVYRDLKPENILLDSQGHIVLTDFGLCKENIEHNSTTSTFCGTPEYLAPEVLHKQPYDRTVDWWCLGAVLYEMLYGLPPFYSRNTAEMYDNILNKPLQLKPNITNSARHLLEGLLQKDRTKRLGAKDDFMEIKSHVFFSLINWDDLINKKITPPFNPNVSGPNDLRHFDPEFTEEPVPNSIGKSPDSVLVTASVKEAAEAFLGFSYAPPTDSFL
As to the kind of experiment: Selectivity interaction (ActivX KiNativ screen (kinase selectivity in THP-1 cell lysates)) EUB0000639a SGK1. The note with it: lysate. In kind it is subcellular.

Assay [6] concerns the target N-lysine methyltransferase SMYD2 (Homo sapiens) (UniProt Q9NRG4). In words: Selectivity interaction (Transferase panel (protein, RNA, and DNA methyltransferases. and EP300 (acetyltransferase))) EUB0000270b SMYD2.
The target of assay [7] is Tyrosine-protein kinase Lyn (Homo sapiens, UniProt P07948). In words: Selectivity interaction (KinomeScan (DiscoverX)) EUB0000618a LYN. The note with it: at 10 µM.
Sequence of Tyrosine-protein kinase Lyn (P07948 2-512 limits assumed): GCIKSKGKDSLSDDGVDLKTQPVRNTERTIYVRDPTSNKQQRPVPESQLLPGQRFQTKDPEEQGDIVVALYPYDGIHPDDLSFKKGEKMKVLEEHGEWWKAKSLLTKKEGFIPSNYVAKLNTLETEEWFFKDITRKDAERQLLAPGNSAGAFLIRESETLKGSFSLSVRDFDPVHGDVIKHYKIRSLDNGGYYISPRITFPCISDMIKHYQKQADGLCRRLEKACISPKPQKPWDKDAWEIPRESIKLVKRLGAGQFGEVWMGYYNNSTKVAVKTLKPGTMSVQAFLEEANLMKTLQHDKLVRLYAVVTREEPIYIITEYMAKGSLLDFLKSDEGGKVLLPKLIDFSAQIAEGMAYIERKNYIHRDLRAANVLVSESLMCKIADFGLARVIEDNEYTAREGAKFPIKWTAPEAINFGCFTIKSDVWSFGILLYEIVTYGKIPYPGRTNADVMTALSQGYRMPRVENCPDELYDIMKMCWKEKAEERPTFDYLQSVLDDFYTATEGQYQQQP

Sequence of N-lysine methyltransferase SMYD2 (Homo sapiens) (Q9NRG4 whole entry): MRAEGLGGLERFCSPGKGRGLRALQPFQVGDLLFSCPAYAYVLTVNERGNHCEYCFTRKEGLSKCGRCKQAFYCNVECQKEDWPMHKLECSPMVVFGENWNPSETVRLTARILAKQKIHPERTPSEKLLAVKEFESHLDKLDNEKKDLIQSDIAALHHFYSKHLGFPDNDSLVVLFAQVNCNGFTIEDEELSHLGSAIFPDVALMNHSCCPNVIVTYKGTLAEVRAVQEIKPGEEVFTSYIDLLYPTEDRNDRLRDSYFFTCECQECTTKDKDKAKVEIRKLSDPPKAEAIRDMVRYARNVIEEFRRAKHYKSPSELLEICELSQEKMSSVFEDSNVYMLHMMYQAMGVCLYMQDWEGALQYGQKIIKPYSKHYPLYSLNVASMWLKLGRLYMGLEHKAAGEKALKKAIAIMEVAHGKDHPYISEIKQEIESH
Sequence of Ribosomal protein S6 kinase alpha-6 (Q9UK32 whole entry): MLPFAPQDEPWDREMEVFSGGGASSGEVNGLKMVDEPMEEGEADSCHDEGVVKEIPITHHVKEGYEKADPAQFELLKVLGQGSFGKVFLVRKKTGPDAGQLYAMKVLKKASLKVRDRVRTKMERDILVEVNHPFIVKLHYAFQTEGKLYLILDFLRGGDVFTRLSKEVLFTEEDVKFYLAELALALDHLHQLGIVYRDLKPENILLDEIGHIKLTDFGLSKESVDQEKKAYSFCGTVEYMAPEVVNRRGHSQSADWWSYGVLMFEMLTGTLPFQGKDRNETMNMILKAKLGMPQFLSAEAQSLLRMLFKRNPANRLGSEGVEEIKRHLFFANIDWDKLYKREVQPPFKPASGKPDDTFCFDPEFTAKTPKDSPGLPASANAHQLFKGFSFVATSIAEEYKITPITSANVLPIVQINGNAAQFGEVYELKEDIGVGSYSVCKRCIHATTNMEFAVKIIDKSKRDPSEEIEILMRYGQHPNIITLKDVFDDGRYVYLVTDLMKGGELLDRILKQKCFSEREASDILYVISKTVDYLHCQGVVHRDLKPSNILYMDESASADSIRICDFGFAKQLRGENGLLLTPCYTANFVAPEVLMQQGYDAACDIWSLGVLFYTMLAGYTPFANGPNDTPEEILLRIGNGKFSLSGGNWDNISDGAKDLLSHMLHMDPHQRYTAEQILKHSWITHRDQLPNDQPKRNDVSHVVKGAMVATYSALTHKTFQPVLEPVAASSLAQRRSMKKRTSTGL
Sequence of Epithelial discoidin domain-containing receptor 1 (Homo sapiens) (Q08345 whole entry, the tested form may be a part): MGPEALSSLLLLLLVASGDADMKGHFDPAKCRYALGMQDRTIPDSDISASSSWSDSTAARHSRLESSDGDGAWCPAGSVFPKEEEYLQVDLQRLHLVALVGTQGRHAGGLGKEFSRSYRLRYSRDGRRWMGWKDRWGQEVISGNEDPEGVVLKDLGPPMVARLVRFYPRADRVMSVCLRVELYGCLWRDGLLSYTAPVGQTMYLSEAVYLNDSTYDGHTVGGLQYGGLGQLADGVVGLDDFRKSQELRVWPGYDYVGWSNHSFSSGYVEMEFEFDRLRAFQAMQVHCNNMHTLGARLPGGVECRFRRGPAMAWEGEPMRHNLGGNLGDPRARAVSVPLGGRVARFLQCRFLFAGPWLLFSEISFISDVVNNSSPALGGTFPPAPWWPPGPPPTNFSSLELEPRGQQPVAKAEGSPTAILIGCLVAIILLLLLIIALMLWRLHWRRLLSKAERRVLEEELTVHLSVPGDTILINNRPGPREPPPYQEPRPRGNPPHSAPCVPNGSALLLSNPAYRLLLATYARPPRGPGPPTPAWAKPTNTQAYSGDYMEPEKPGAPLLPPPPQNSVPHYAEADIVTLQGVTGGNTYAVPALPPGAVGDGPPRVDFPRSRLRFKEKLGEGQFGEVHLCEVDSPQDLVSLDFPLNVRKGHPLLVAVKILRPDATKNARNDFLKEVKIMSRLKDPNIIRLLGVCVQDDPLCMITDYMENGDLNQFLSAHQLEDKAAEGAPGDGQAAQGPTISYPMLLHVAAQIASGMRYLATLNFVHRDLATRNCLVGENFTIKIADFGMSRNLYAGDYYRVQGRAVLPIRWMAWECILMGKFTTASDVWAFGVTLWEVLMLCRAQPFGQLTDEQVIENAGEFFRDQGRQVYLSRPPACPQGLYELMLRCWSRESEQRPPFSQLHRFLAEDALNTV

Consider `COCC(=O)NC/C=C/c1ccc2ncnc(Nc3ccc(Oc4ccc(C)nc4)c(C)c3)c2c1` [CP-724714], for which the % of control in assay [1] was found to be 52%; in assay [2], 96%.

Molecule `O=C(NOC[C@H](O)CO)c1ccc(F)c(F)c1Nc1ccc(I)cc1F` registered a % of control in assay [3] of 86%.

On to `CC[C@@H]1[C@H](F)C(=O)N[C@@H]1COc1nccc2cc(C(N)=O)c(OC)cc12` [ZIMLOVISERTIB], for which the % of inhibition in assay [4] (at 0.01 µM) was -1.5%; in assay [4] (at 0.04 µM), -1.9%; in assay [4] (at 0.2 µM), -4.2%; in assay [4] (at 1 µM), 17.9%; in assay [4] (at 5 µM), 22.6%; in assay [5] (at 0.01 µM), -1%. Moreover, the % of inhibition in assay [5] (at 0.04 µM) is 3.1%; in assay [5] (at 0.2 µM), -5.7%; in assay [5] (at 1 µM), -1%; in assay [5] (at 5 µM), -1.4%.

For the molecule `Cc1cc(CN)cc(C)c1-c1ncn(C)c1-c1cncn1C`, the results for the % activity in assay [6] (at 1 µM) and in assay [6] (at 10 µM) were > 90% and > 80%, respectively.

In the case of `O[C@H]1CC[C@H](Nc2ncc3nc(Nc4c(F)cc(F)cc4F)n([C@H]4CCOC4)c3n2)CC1`, the % of control in assay [7] was 98%.
